From publication PMC12655637, “Design, Synthesis, and Mechanistic Study of Novel Ciprofloxacin/Thiazole Chalcone Hybrids as Potential Anticancer Agents” (Pharmaceuticals, 2025)

Key:
Experiment in all cases: NCI-60 screening, one-dose (10 µM) and five-dose, SRB
HCC-2998 = type: cell-based, human; settings: Homo sapiens; 10 μM; HCC-2998, Colon Cancer; read-out: Growth percentage
OVCAR-4 = type: cell-based, human; settings: Homo sapiens; 10 μM; OVCAR-4, Ovarian Cancer; read-out: Growth percentage
M14 = type: cell-based, human; settings: Homo sapiens; 10 μM; M14, Melanoma; read-out: Growth percentage
HCT-116 = type: cell-based, human; settings: Homo sapiens, HCT-116, 10 μM; HCT-116, Colon Cancer; read-out: Growth percentage
A498 = type: cell-based; settings: Homo sapiens, A498, 10 μM; A498, Renal Cancer; read-out: Growth percentage
SF-295 = type: cell-based, human; settings: Homo sapiens; 10 μM; SF-295, CNS Cancer; read-out: Growth percentage
SF-268 = type: cell-based, human; settings: Homo sapiens; 10 μM; SF-268, CNS Cancer; read-out: Growth percentage
SK-MEL-5 = type: cell-based, human; settings: Homo sapiens; 10 μM; SK-MEL-5, Melanoma; read-out: Growth percentage
RPMI-8226 = type: cell-based, human; settings: Homo sapiens, RPMI-8226, 10 μM; RPMI-8226, Leukemia; read-out: Growth percentage
HOP-92 = type: cell-based, human; settings: Homo sapiens; 10 μM; HOP-92, Non-Small-Cell Lung Cancer; read-out: Growth percentage
CAKI-1 = type: cell-based; settings: Homo sapiens; 10 μM; CAKI-1, Renal Cancer; read-out: Growth percentage
UACC-62 = type: cell-based; settings: Homo sapiens; 10 μM; UACC-62, Melanoma; read-out: Growth percentage
SNB-75 = type: cell-based, human; settings: Homo sapiens; 10 μM; SNB-75, CNS Cancer; read-out: Growth percentage
DU-145 = type: cell-based, human; settings: Homo sapiens; 10 μM; DU-145, Prostate Cancer; read-out: Growth percentage
K-562 = type: cell-based, human; settings: Homo sapiens, K562, 10 μM; K-562, Leukemia; read-out: Growth percentage
MALME-3M = type: cell-based, human; settings: 10 μM, Melanoma
LOX IMVI = type: cell-based, human; settings: Homo sapiens, 10 μM, Melanoma, read-out: Growth percentage
786−0 = type: cell-based, human; settings: Homo sapiens; 10 μM; 786−0, Renal Cancer; read-out: Growth percentage
RXF 393 = type: cell-based; settings: Homo sapiens; 10 μM; RXF 393, Renal Cancer; read-out: Growth percentage
EKVX = type: cell-based, human; settings: Homo sapiens, 10 μM, Non-Small-Cell Lung Cancer, read-out: Growth percentage
COLO 205 = type: cell-based, human; settings: Homo sapiens; 10 μM; COLO 205, Colon Cancer; read-out: Growth percentage
PC-3 = type: cell-based, human; settings: Homo sapiens; 10 μM; PC-3, Prostate Cancer; read-out: Growth percentage
SK-MEL-28 = type: cell-based, human; settings: Homo sapiens; 10 μM; SK-MEL-28, Melanoma; read-out: Growth percentage
MCF7 = type: cell-based, human; settings: Homo sapiens, MCF7, 10 μM; MCF7, Breast Cancer; read-out: Growth percentage
NCI-H460 = type: cell-based, human; settings: Homo sapiens, NCI-H460, 10 μM; NCI-H460, Non-Small-Cell Lung Cancer; read-out: Growth percentage
NCI-H322M = type: cell-based, human; settings: 10 μM, Non-Small-Cell Lung Cancer
NCI-H23 = type: cell-based, human; settings: Homo sapiens; 10 μM; NCI-H23, Non-Small-Cell Lung Cancer; read-out: Growth percentage
IGROV1 = type: cell-based, human; settings: 10 μM; IGROV1, Ovarian Cancer
U251 = type: cell-based, human; settings: Homo sapiens, U-251; 10 μM; U251, CNS Cancer; read-out: Growth percentage

CC(=O)c1sc(SCC(=O)N2CCN(c3cc4c(cc3F)c(=O)c(C(=O)O)cn4C3CC3)CC2)nc1C [Compound 4a, 7-(4-(2-((5-Acetyl-4-methylthiazol-2-yl)thio)acetyl)piperazin-1-yl)-1-cyclopropyl-6-fluoro-4-oxo-1,4-dihydroquinoline-3-carboxylic Acid] showed an activity at 10 µM (HCC-2998) of 96.6%, an activity at 10 µM (OVCAR-4) of 95.1% and an activity at 10 µM (M14) of 104%. The activity at 10 µM (HCT-116) was 113%, the activity at 10 µM (A498) was 104% and the activity at 10 µM (SF-295) was 94.2%. The activity at 10 µM (SF-268) was 103%, the activity at 10 µM (SK-MEL-5) was 89% and the activity at 10 µM (RPMI-8226) was 133%. For the same compound, the activity at 10 µM (HOP-92) was 105%, the activity at 10 µM (CAKI-1) was 99.2% and the activity at 10 µM (UACC-62) was 104%. For the same compound, the activity at 10 µM (SNB-75) was 79.2%, the activity at 10 µM (DU-145) was 95.3% and the activity at 10 µM (K-562) was 123%. The Growth percentage (MALME-3M) was 104.9%, the activity at 10 µM (LOX IMVI) was 106% and the activity at 10 µM (786−0) was 96.2%. The activity at 10 µM (RXF 393) was 91.7%, the activity at 10 µM (EKVX) was 104% and the activity at 10 µM (COLO 205) was 118%. It also gave an activity at 10 µM (PC-3) of 98.8%, an activity at 10 µM (SK-MEL-28) of 96.7% and an activity at 10 µM (MCF7) of 94.2%. The activity at 10 µM (NCI-H460) was 104%, the Growth percentage (NCI-H322M) was 105.5% and the activity at 10 µM (NCI-H23) was 106%. The Growth percentage (IGROV1) was 115.9% and the activity at 10 µM (U251) was 114%.
